# According to patent US7244738B2, “Arylamine-substituted quinazolinone compounds useful as alpha 1A/B adrenergic receptor antagonists” (Roche Palo Alto LLC, priority 2003, dated 2007):
row,melting point,SMILES
1,118.1 to 120.8 °C,"CNCC(=O)N(C)C(C)c1cccc(CN(C)c2nc(=O)c3c(C)c(OC)c(OC)cc3[nH]2)c1 (centres unmarked) [Example 52, N-[1-(3-{[(6,7-Dimethoxy-5-methyl-4-oxo-1,4-dihydro-quinazolin-2-yl)-methyl-amino]-methyl}-phenyl)-ethyl]-N-methyl-2-methylamino-acetamide]"
2,222.1 to 226.9 °C,"COc1cc2[nH]c(N(C)Cc3cccc(/N=C(\C)N(C)C)c3)nc(=O)c2c(C#N)c1OC [Example 53, N′-(3-{[(5-Cyano-6,7-dimethoxy-4-oxo-1,4-dihydro-quinazolin-2-yl)-methyl-amino]-methyl}-phenyl)-N,N-dimethyl-acetamide]"
3,114.5 to 116.9 °C,"COCCN(C)C(C)c1cccc(CN(C)c2nc(=O)c3c(C)c(OC)c(OC)cc3[nH]2)c1 (centres unmarked) [Example 54, 6,7-Dimedthoxy-2-[(3-{1-[(2-methoxy-ethyl)-methyl-amino]-ethyl}-benzyl)-methyl-amino]-5-methyl-1H-quinazolin-4-one]"
4,174.9 to 176 °C,"COc1cc2[nH]c(N(C)Cc3cccc(CN(C)C)c3)nc(=O)c2c(C)c1OC [Example 56, 2-[(3-Dimethylaminomethyl-benzyl)-methyl-amino]-6,7-dimethoxy-5-methyl-1H-quinazolin-4-one]"
5,209.3 to 210.8 °C,"COc1cc2[nH]c(N(C)Cc3cccc(N4C(=O)CN(C)C4=O)c3)nc(=O)c2c(C)c1OC [Example 60, 3-(3-{[(6,7-Dimethoxy-5-methyl-4-oxo-1,4-dihydro-quinazolin-2-yl)-methyl-amino]-methyl-}-phenyl)-1-methyl-imidazolidine-2,4-dione]"
6,137 to 140.1 °C,"COc1cc2[nH]c(N(C)Cc3cccc(C(C)N(C)C)c3)nc(=O)c2c(C)c1OC (centres unmarked) [Example 61, 2-{[3-(1-Dimethylamino-ethyl)-benzyl]-methyl-amino}-6,7-dimethoxy-5-methyl-1H-quinazolin-4-one]"
7,122.6 to 125.5 °C,"COc1cc2[nH]c(N(C)Cc3cccc(C(C)N(C)C)c3)nc(=O)c2c(OC)c1OC (centres unmarked) [Example 62, 2-{[3-(1-Dimethylamino-ethyl)-benzyl]-methyl-amino}-5,6,7-trimethoxy-1H-quinazolin-4-one]"
8,131.8 to 134.4 °C,"CNC(C)c1cccc(CN(C)c2nc(=O)c3c(OC)c(OC)c(OC)cc3[nH]2)c1 (centres unmarked) [Example 63, 5,6,7-Trimethoxy-2-{methyl-[3-(1-methylamino-ethyl)-benzyl]-amino}-1H-quinazolin-4-one]"
9,161.6 to 164.1 °C,"CNC(C)c1cccc(CN(C)c2nc(=O)c3c(C)c(OC)c(OC)cc3[nH]2)c1 (centres unmarked) [Example 64, 6,7-Dimethoxy-5-methyl-2-{methyl[3-(1-methylamino-ethyl)-benzyl]-amino}-1H-quinazolin-4-one]"
10,217.8 to 219.2 °C,"COc1cc2[nH]c(N(C)Cc3cccc(N4C(=O)CC(C)C4=O)c3)nc(=O)c2c(C)c1OC (centres unmarked) [Example 65, 1-(3-{[(6,7-Dimethoxy-5-methyl-4-oxo-1,4-dihydro-quinazolin-2-yl)-methyl-amino]-methyl}-phenyl)-3-methyl-pyrrolidine-2,5-dione]"
11,144.5 to 147.6 °C,"COc1cc2[nH]c(N(C)Cc3cccc(CNC4CC4)c3)nc(=O)c2c(C)c1OC [Example 66, 2-[(3-Cyclopropylaminomethyl-benzyl)-methyl-amino]-6,7-dimethoxy-5-methyl-1H-quinazolin-4-one]"
12,143.3 to 144.4 °C,"COc1cc2[nH]c(N(C)Cc3cccc(CNC(C)C)c3)nc(=O)c2c(C)c1OC [Example 67, 2-{[3-(Isopropylamino-methyl)-benzyl]-methyl-amino}-6,7-dimethoxy-5-methyl-1H-quinazolin-4-one]"
13,128.1 to 129.1 °C,"CCCN(C)Cc1cccc(CN(C)c2nc(=O)c3c(C)c(OC)c(OC)cc3[nH]2)c1 [Example 68, 6,7-Dimethoxy-5-methyl-2-(methyl-{3-[(methyl-propyl-amino)-methyl]-benzyl}-amino)-1H-quinazolin-4-one]"
14,142.5 to 142.9 °C,"CNCc1cccc(CNc2nc(=O)c3c(C)c(OC)c(OC)cc3[nH]2)c1 [Example 69, 6,7-Dimethoxy-5-methyl-2-(3-methylaminomethyl-benzylamino)-1H-quinazolin-4-one]"
15,221.8 to 223 °C,"COc1cc2[nH]c(N(C)Cc3cccc(/N=C(\C)N(C)C)c3)nc(=O)c2cc1OC [Example 70, N′-(3-{[(6,7-Dimethoxy-4-oxo-1,4-dihydro-quinazolin-2-yl)-methyl-amino]-methyl}-phenyl)-N,N-dimethyl-acetamidine]"
16,146.7 to 150.8 °C,"CCN(C)Cc1cccc(CN(C)c2nc(=O)c3c(C)c(OC)c(OC)cc3[nH]2)c1 [Example 71, 2-({3-[(Ethyl-methyl-amino)-methyl]-benzyl}-methyl-amino)-6,7-dimethoxy-5-methyl-1H-quinazolin-4-one]"
17,173 to 175 °C,"COc1cc2[nH]c(NCc3cccc(/N=C(\C)N(C)C)c3)nc(=O)c2c(C)c1OC [Example 72, N′-{3-[(6,7-Dimethoxy-5-methyl-4-oxo-1,4-dihydro-quinazolin-2-ylamino)-methyl]-phenyl}-N,N-dimethyl-acetamide]"
18,229 to 231 °C,"COc1ccnc(N2CCN(c3nc(=O)c4c(OC)c(OC)c(OC)cc4[nH]3)CC2)c1 [Example 73, 5,6,7-Trimethoxy-2-[4-(4-methoxy-pyridin-2-yl)-piperazin-1-yl]-1H-quinazolin-4-one]"

row,melting point,SMILES
1,185.4 to 191.9 °C,"COc1cc2c(=O)nc(N(C)Cc3cccc(/N=C(\C)N(C)C)c3)[nH]c2cc1Cl [Example 74, N′-(3-{[(7-Chloro-6-methoxy-4-oxo-1,4-dihydro-quinazolin-2-yl)-methyl-amino]-methyl}-phenyl)-N,N-dimethyl-acetamide]"
2,156.4 to 162 °C,"COc1cc2[nH]c(N(C)Cc3cccc(N4CCC(C)C4=O)c3)nc(=O)c2c(OC)c1OC (centres unmarked) [Example 75, 5,6,7-Trimethoxy-2-{methyl-[3-(3-methyl-2-oxo-pyrrolidin-1-yl)-benzyl]-amino}-1H-quinazolin-4-one]"
3,265 to 266 °C,"COc1cc2[nH]c(N(C)Cc3cccc(N4CCNC4=O)c3)nc(=O)c2c(C)c1OC [Example 76, 6,7-Dimethoxy-5-methyl-2-{methyl-[3-(2-oxo-imidazolidin-1-yl)-benzyl]-amino}-1H-quinazolin-4-one]"
4,150 to 152.1 °C,COCCNCc1cccc(CN(C)c2nc(=O)c3c(C)c(OC)c(OC)cc3[nH]2)c1 [Example 77]
5,211 to 214 °C,"COc1cc2[nH]c(N(C)Cc3cccc(NC4=NCCC4)c3)nc(=O)c2cc1OC [Example 87, 2-{[3-(4,5-Dihydro-3H-pyrrol-2-ylamino)-benzyl]-methyl-amino}-6,7-dimethoxy-1H-quinazolin-4-one]"
6,163.8 to 176.9 °C,"COc1cc2[nH]c(N(C)Cc3cccc(NC4=NCCN4)c3)nc(=O)c2cc1OC [Example 89, 2-{[3-(4,5-Dihydro-1H-imidazol-2-ylamino)-benzyl]-methyl-amino}-6,7-dimethoxy-1H-quinazolin-4-one]"
7,240 to 242 °C,"COc1cc2[nH]c(N(C)Cc3cccc(N4C=NC(C)(C)C4)c3)nc(=O)c2cc1OC [Example 90, 2-{[3-(4,4-Dimethyl-4,5-dihydro-imidazol-1-yl)-benzyl]-methyl-amino}-6,7-dimethoxy-1H-quinazolin-4-one]"
8,135 to 138.1 °C,"COc1cc2[nH]c(N(C)CCc3cccc(/N=C(\C)N(C)C)c3)nc(=O)c2cc1OC [Example 91, N′-(3-{2-[(6,7-Dimethoxy-4-oxo-1,4-dihydro-quinazolin-2-yl)-methyl-amino]-ethyl}-phenyl)-N,N-dimethyl-acetamidine]"
9,195.9 to 197.9 °C,"CNc1cccc(CN(C)c2nc(=O)c3c(C)c(OC)c(OC)cc3[nH]2)c1 [Example 102, 6,7-Dimethoxy-5-methyl-2-[methyl-(3-methylamino-benzyl)-amino]-1H-quinazolin-4-one]"
10,225 to 226.5 °C,"COc1cc2[nH]c(N(C)Cc3cccc(N)c3)nc(=O)c2c(OC)c1OC [Example 103, 2-[(3-Amino-benzyl)-methyl-amino]-5,6,7-trimethoxy-1H-quinazolin-4-one]"
11,149.5 to 153.3 °C,"COc1cc2[nH]c(N(C)Cc3cccc(CC#N)c3)nc(=O)c2c(OC)c1OC [Example 107, (3-{[Methyl-(5,6,7-trimethoxy-4-oxo-1,4-dihydro-quinazloin-2-yl)-amino]-methyl}-phenyl)-acetonitrile]"
12,160 to 162.1 °C,"COc1cc2[nH]c(N(C)Cc3cccc(CN4CCOCC4)c3)nc(=O)c2c(OC)c1OC [Example 110, 5,6,7-Trimethoxy-2-[methyl-(3-morpholin-4-ylmethyl-benzyl)-amino]-1H-quinazolin-4-one]"
13,124.9 to 127.6 °C,"CNCc1cccc(CN(C)c2nc(=O)c3c(OC)c(OC)c(OC)cc3[nH]2)c1 [Example 111, 5,6,7-Trimethoxy-2-[methyl-(3-methylaminomethyl-benzyl)-amino]-1H-quinazolin-4-one]"
14,158.2 to 158.9 °C,"CCNCc1cccc(CN(C)c2nc(=O)c3c(C)c(OC)c(OC)cc3[nH]2)c1 [Example 113, 2-[(3-Ethylaminomethyl-benzyl)-methyl-amino]-6,7-dimethoxy-5-methyl-1H-quinazolin-4-one]"
15,106.5 to 108.9 °C,"CCN(C)Cc1cccc(CN(C)c2nc(=O)c3c(OC)c(OC)c(OC)cc3[nH]2)c1 [Example 114, 2-({3-[(Ethyl-methyl-amino)-methyl]-benzyl}-methyl-amino)-5,6,7-trimethoxy-1H-quinazolin-4-one]"
16,150 to 151.2 °C,"COCC(=O)N(C)Cc1cccc(CN(C)c2nc(=O)c3c(C)c(OC)c(OC)cc3[nH]2)c1 [Example 119, N-(3-{[(6,7-Dimethoxy-5-methyl-4-oxo-1,4-dihydro-quinazolin-2-yl)-methyl-amino]-methyl}-benzyl)-2-methoxy-N-methyl-acetamide]"
17,115 to 117 °C,"COCC(=O)N(C)Cc1cccc(CN(C)c2nc(=O)c3c(OC)c(OC)c(OC)cc3[nH]2)c1 [Example 120, 2-Methoxy-N-methyl-N-(3-{[methyl-(5,6,7-trimethoxy-4-oxo-1,4-dihydro-quinazolin-2-yl)-amino]-methyl}-benzyl)-acetamide]"
